BigSolDB 2.1

O=C(O)c1ccc(Cl)cc1Cl
solubility (mole fraction)
Settings | in acetone | in acetonitrile | in ethanol | in ethyl acetate | in isobutanol | in isopropanol | in methanol | in n-butanol | in n-propanol | in toluene
273.15 K | 0.0323 | 0.00318 | 0.0364 | 0.0232 | 0.0242 | 0.0367 | 0.0261 | 0.0374 | 0.0348 | 0.00132
278.15 K | 0.0359 | 0.00361 | 0.04 | 0.0263 | 0.0281 | 0.0412 | 0.0294 | 0.0418 | 0.0385 | 0.00174
283.15 K | 0.0394 | 0.00451 | 0.0442 | 0.0308 | 0.0326 | 0.0459 | 0.0331 | 0.0468 | 0.0422 | 0.0022
288.15 K | 0.0439 | 0.00531 | 0.0485 | 0.0347 | 0.0375 | 0.0501 | 0.0369 | 0.0511 | 0.0465 | 0.00284
293.15 K | 0.0482 | 0.00597 | 0.0537 | 0.0395 | 0.043 | 0.0565 | 0.0411 | 0.0563 | 0.052 | 0.0036
298.15 K | 0.0531 | 0.00702 | 0.0591 | 0.0441 | 0.0483 | 0.0627 | 0.0458 | 0.0616 | 0.0575 | 0.00433
303.15 K | 0.0585 | 0.00786 | 0.065 | 0.0484 | 0.0535 | 0.0699 | 0.0505 | 0.0676 | 0.0631 | 0.00552
308.15 K | 0.0648 | 0.00929 | 0.0719 | 0.0537 | 0.0597 | 0.0769 | 0.0556 | 0.0746 | 0.0695 | 0.00671
313.15 K | 0.0713 | 0.0103 | 0.0788 | 0.0595 | 0.066 | 0.0849 | 0.0616 | 0.0814 | 0.0763 | 0.00837
318.15 K | 0.0784 | 0.0115 | 0.0849 | 0.0654 | 0.0719 | 0.0944 | 0.0673 | 0.0891 | 0.0823 | 0.00993
